Values belong to the substance of their own block, whether it stands above or below them.
Test system: IgE antibody present in the serum of a patient (latex-allergic)
Assay: Latex epitope mapping (2) overlapping 10-residue peptides and (3) alanine/glycine scanning on peptide arrays
Type: binding, human
Experimental: On the basis of the sequences (SEQ ID NOs: 5, 25, 35, 68 and 83) of the peptides bound to an IgE antibody in serum in a patient-specific manner as described above in (A), a library of overlapping peptide fragments (length: 10 amino acids) was prepared using the sequences of the peptides and sequences in which sequences were added so as to flank each peptide in the amino acid sequences of allergy components comprising the sequences of the peptide. Epitope mapping was carried out using the library.
The peptides to be synthesized were shifted by one amino acid.
The library was prepared by the same procedure as described above in (A), and the presence or absence of binding of an IgE antibody present in the serum of a patient to each peptide fragment was measured by the same technique as described above. Numeric values determined from images obtained as a result of carrying out only the procedures (1) and (4) to (6) described above in the subsection titled (3) Spotting of cellulose-bound peptide solution were used as control values. The control value of each peptide was subtracted from numeric values determined from images obtained from results about the serum of patients, and the obtained value of the difference was compared with values of the peptides serving as the basis of overlapping.
Chemiluminescence intensity in images obtained by measurement was converted into a numeric value in the same manner as in (A). Numeric values determined from images obtained as a result of carrying out only the procedures (1) and (4) to (6) described above in the subsection titled (3) Spotting of cellulose-bound peptide solution (secondary antibody measurement values) were used as control values. The control value of each peptide was subtracted from numeric values determined from images obtained from results about the serum of patients. When values obtained using the sequences (SEQ ID NOs: 5, 25, 35, 68 and 83) serving as the basis of overlapping were defined as 100%, it was determined that: a peptide having a value of the difference that was less than 30% had no binding activity against IgE antibodies; a peptide having a value of the difference that was 30% or more and less than 50% had binding activity, albeit poor, against IgE antibodies; a peptide having a value of the difference that was 50% or more and less than 70% had binding activity, albeit somewhat poor, against IgE antibodies; and a peptide having a value of the difference that was 70% or more had equivalent or good binding activity against IgE antibodies and was thus a peptide had remaining binding activity against IgE antibodies.
From the amino acid sequences identified above in (A), a library of peptide fragments in which amino-terminal amino acids were substituted one by one by alanine (or glycine when the original amino acid was alanine) according to a technique called alanine/glycine scanning (Non Patent Literature 5) was prepared by the same technique as described above. The presence or absence of binding of an IgE antibody present in the serum of a patient to each peptide fragment was measured by the same technique as described above.
Chemiluminescence intensity in images obtained by measurement was converted into a numeric value in the same manner as in (A). Numeric values determined from images obtained from secondary antibody measurement values were used as control values. The control value of each peptide was subtracted from numeric values determined from images obtained from results about the serum of 17 patients (patient Nos. P1-P17). […]

[1] = serum of latex-allergic patient P1
[2] = serum of latex-allergic patient P2
[3] = serum of latex-allergic patient P6
[4] = serum of latex-allergic patient P7
[5] = serum of latex-allergic patient P8
[6] = serum of latex-allergic patient P9
[7] = serum of latex-allergic patient P12
[8] = serum of latex-allergic patient P13
[9] = serum of latex-allergic patient P17
[10] = serum of latex-allergic patient P15
[11] = serum of latex-allergic patient P3
[12] = serum of latex-allergic patient P4
[13] = serum of latex-allergic patient P5

Substance: 6 (QKPY; epitope) [compound 6]
epitope sequence grade for binding to IgE antibody [1]: Key

Substance: 7 (DNFVIQKPYD; epitope) [compound 7]
epitope sequence grade for binding to IgE antibody [2]: Preferably

Substance: 9 (EDNFVIQKPY; epitope) [compound 9]
epitope sequence grade for binding to IgE antibody [3]: More preferably

Substance: 10 (QKPYDK; epitope) [compound 10]
epitope sequence grade for binding to IgE antibody [3]: Preferably

Substance: 11 (QKPY; epitope) [compound 11]
epitope sequence grade for binding to IgE antibody [3]: Key

Substance: 12 (QKPYD; epitope) [compound 12]
epitope sequence grade for binding to IgE antibody [4]: Preferably

Substance: 14 (QKPYDK; epitope) [compound 14]
epitope sequence grade for binding to IgE antibody [5]: Preferably

Substance: 15 (QKPYD; epitope) [compound 15]
epitope sequence grade for binding to IgE antibody [5]: Key

Substance: 16 (QKPYDK; epitope) [compound 16]
epitope sequence grade for binding to IgE antibody [6]: Key

Substance: 18 (QKPYDK; epitope) [compound 18]
epitope sequence grade for binding to IgE antibody [7]: Preferably

Substance: 22 (QKPYDKPLN; epitope) [compound 22]
epitope sequence grade for binding to IgE antibody [9]: More preferably

Substance: 23 (QKPYD; epitope) [compound 23]
epitope sequence grade for binding to IgE antibody [9]: Preferably

Substance: 26 (DKPLN; epitope) [compound 26]
epitope sequence grade for binding to IgE antibody [2]: Key

Substance: 27 (KPYDKP; epitope) [compound 27]
epitope sequence grade for binding to IgE antibody [3]: Key

Substance: 28 (KPLNDRYS; epitope) [compound 28]
epitope sequence grade for binding to IgE antibody [3]: Key

Substance: 29 (DKPLNDR; epitope) [compound 29]
epitope sequence grade for binding to IgE antibody [6]: Key

Substance: 30 (KPLN; epitope) [compound 30]
epitope sequence grade for binding to IgE antibody [8]: Key

Substance: 32 (KPLN; epitope) [compound 32]
epitope sequence grade for binding to IgE antibody [10]: Key

Substance: 33 (KPYDKPLNDR; epitope) [compound 33]
epitope sequence grade for binding to IgE antibody [9]: Preferably

Substance: 37 (SYKSNSVATD; epitope) [compound 37]
epitope sequence grade for binding to IgE antibody [11]: Further preferably

Substance: 38 (SYKSNSVA; epitope) [compound 38]
epitope sequence grade for binding to IgE antibody [11]: More preferably

Substance: 39 (SYKSNSV; epitope) [compound 39]
epitope sequence grade for binding to IgE antibody [11]: Preferably

Substance: 41 (SYKSNSV; epitope) [compound 41]
epitope sequence grade for binding to IgE antibody [12]: More preferably

Substance: 44 (SYKSNS; epitope) [compound 44]
epitope sequence grade for binding to IgE antibody [13]: Preferably

Substance: 46 (LKSYKSNSVA; epitope) [compound 46]
epitope sequence grade for binding to IgE antibody [5]: Preferably

Substance: 47 (LKSYKSNSV; epitope) [compound 47]
epitope sequence grade for binding to IgE antibody [5]: Key

Substance: 49 (KSNSVATD; epitope) [compound 49]
epitope sequence grade for binding to IgE antibody [5]: More preferably

Substance: 52 (LKSYK; epitope) [compound 52]
epitope sequence grade for binding to IgE antibody [6]: Key

Substance: 57 (LKSYKSNSVA; epitope) [compound 57]
epitope sequence grade for binding to IgE antibody [7]: Most preferably

Substance: 58 (SYKSNSVATD; epitope) [compound 58]
epitope sequence grade for binding to IgE antibody [7]: Still further preferably

Substance: 59 (SYKSNSVA; epitope) [compound 59]
epitope sequence grade for binding to IgE antibody [7]: Further preferably

Substance: 66 (SYKSNS; epitope) [compound 66]
epitope sequence grade for binding to IgE antibody [8]: Key

Substance: 69 (HKVGKGEI; epitope) [compound 69]
epitope sequence grade for binding to IgE antibody [1]: Preferably

Substance: 70 (HKVGKG; epitope) [compound 70]
epitope sequence grade for binding to IgE antibody [1]: Key

Substance: 71 (VNVIHKVGKG; epitope) [compound 71]
epitope sequence grade for binding to IgE antibody [13]: More preferably

Substance: 74 (VIHKVGKGEI; epitope) [compound 74]
epitope sequence grade for binding to IgE antibody [13]: Further preferably

Substance: 75 (HKVGKGEI; epitope) [compound 75]
epitope sequence grade for binding to IgE antibody [13]: More preferably

Substance: 78 (KVGK; epitope) [compound 78]
epitope sequence grade for binding to IgE antibody [4]: Key

Substance: 79 (KVGK; epitope) [compound 79]
epitope sequence grade for binding to IgE antibody [6]: Key

Substance: 80 (KVGKGEITVF; epitope) [compound 80]
epitope sequence grade for binding to IgE antibody [9]: More preferably

Substance: 87 (YDDKNGYSSS; epitope) [compound 87]
epitope sequence grade for binding to IgE antibody [1]: Further preferably

Substance: 88 (DDKNGYSSS; epitope) [compound 88]
epitope sequence grade for binding to IgE antibody [1]: More preferably

Substance: 91 (WSKFYDDK; epitope) [compound 91]
epitope sequence grade for binding to IgE antibody [2]: Further preferably

Substance: 95 (DDKNGYSSS; epitope) [compound 95]
epitope sequence grade for binding to IgE antibody [2]: More preferably

Substance: 100 (KFYDDK; epitope) [compound 100]
epitope sequence grade for binding to IgE antibody [12]: Key

Substance: 104 (WSKFYDDK; epitope) [compound 104]
epitope sequence grade for binding to IgE antibody [13]: More preferably

Substance: 105 (SKFYDDK; epitope) [compound 105]
epitope sequence grade for binding to IgE antibody [13]: Preferably

Substance: 107 (YDDKNGYSSS; epitope) [compound 107]
epitope sequence grade for binding to IgE antibody [13]: Preferably

Results, then the substance that gave them:

epitope sequence grade for binding to IgE antibody [4]: Key
Substance: 13 (QKPY; epitope) [compound 13]

epitope sequence grade for binding to IgE antibody [7]: More preferably
Substance: 17 (EDNFVIQKPY; epitope) [compound 17]

epitope sequence grade for binding to IgE antibody [7]: Key
Substance: 19 (QKPY; epitope) [compound 19]

epitope sequence grade for binding to IgE antibody [8]: Key
Substance: 20 (QKPYDK; epitope) [compound 20]

epitope sequence grade for binding to IgE antibody [9]: Further preferably
Substance: 21 (FVIQKPYD; epitope) [compound 21]

epitope sequence grade for binding to IgE antibody [9]: Key
Substance: 24 (QKPY; epitope) [compound 24]

epitope sequence grade for binding to IgE antibody [10]: Preferably
Substance: 31 (DKPLND; epitope) [compound 31]

epitope sequence grade for binding to IgE antibody [9]: Key
Substance: 34 (DKPLNDRYS; epitope) [compound 34]

epitope sequence grade for binding to IgE antibody [11]: Most preferably
Substance: 36 (LKSYKSNSVA; epitope) [compound 36]

epitope sequence grade for binding to IgE antibody [5]: Further preferably
Substance: 48 (KSNSVATDI; epitope) [compound 48]

epitope sequence grade for binding to IgE antibody [6]: Further preferably
Substance: 53 (KSNSVATDIY; epitope) [compound 53]

epitope sequence grade for binding to IgE antibody [7]: More preferably
Substance: 63 (VATDIY; epitope) [compound 63]

epitope sequence grade for binding to IgE antibody [9]: Key
Substance: 67 (KSNSV; epitope) [compound 67]

epitope sequence grade for binding to IgE antibody [1]: More preferably
Substance: 84 (SKFYDDKNG; epitope) [compound 84]

epitope sequence grade for binding to IgE antibody [1]: Preferably
Substance: 85 (SKFYDDKN; epitope) [compound 85]

epitope sequence grade for binding to IgE antibody [2]: More preferably
Substance: 92 (KFYDDKNGYS; epitope) [compound 92]

epitope sequence grade for binding to IgE antibody [2]: Preferably
Substance: 93 (KFYDDK; epitope) [compound 93]

epitope sequence grade for binding to IgE antibody [12]: More preferably
Substance: 98 (WSKFYDDK; epitope) [compound 98]

epitope sequence grade for binding to IgE antibody [12]: Preferably
Substance: 99 (KFYDDKNGYS; epiotope) [compound 99]

epitope sequence grade for binding to IgE antibody [12]: More preferably
Substance: 101 (DKNGYSSS; epitope) [compound 101]

epitope sequence grade for binding to IgE antibody [13]: Key
Substance: 106 (KFYDDK; epitope) [compound 106]

epitope sequence grade for binding to IgE antibody [4]: Key
Substance: 109 (WSKFYDDK; epitope) [compound 109]

Source: patent US20210231678A1, “ALLERGY ANTIGEN AND EPITOPE THEREOF” (FUJITA ACADEMY, priority 2020, published 2021)
